Experimental data from PubChem BioAssay (NCI).
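Method: 48-hour compound exposure of cells in 96-well plates, five concentrations, linear interpolation of endpoints. The concentration for 50% growth inhibition is given as GI50. At the TGI there is no net growth.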

Legend:
Experiment in all cases: inhibition of tumour cell growth, NCI panel, 48 h
[1] = tested on: SNB-75 CNS
[2] = tested on: MOLT-4 leukemia
[3] = tested on: NCI-H23 lung
[4] = tested on: OVCAR-5 ovarian
[5] = tested on: HOP-62 NSCLC
[6] = tested on: OVCAR-3 ovarian
[7] = tested on: SW-620 colon
[8] = tested on: SK-MEL-2 melanoma
[9] = tested on: BT-549 breast
[10] = tested on: RXF 393 renal
[11] = tested on: A498 renal
[12] = tested on: U251 CNS
[13] = tested on: UO-31 renal
[14] = tested on: NCI-H460 lung
[15] = tested on: HCT-116 colon
[16] = tested on: NCI/ADR-RES ovarian
[17] = tested on: OVCAR-4 ovarian
[18] = tested on: A549 NSCLC
[19] = tested on: EKVX NSCLC
[20] = tested on: SNB-19 CNS
[21] = tested on: MALME-3M melanoma
[22] = tested on: MDA-MB-435
[23] = tested on: T-47D breast
[24] = tested on: MCF7 breast
[25] = tested on: PC-3 prostate
[26] = tested on: NCI-H226 lung
[27] = tested on: K-562 leukemia
[28] = tested on: HS 578T breast
[29] = tested on: HCT-15 colon
[30] = tested on: NCI-H522 lung
[31] = tested on: SK-MEL-5 melanoma
[32] = tested on: SF-539 CNS
[33] = tested on: COLO 205 colon
[34] = tested on: KM12 colon
[35] = tested on: HL-60(TB) leukemia
[36] = tested on: SF-295 CNS
[37] = tested on: SR leukemia
[38] = tested on: SK-OV-3 ovarian
[39] = tested on: HOP-92 NSCLC
[40] = tested on: LOX IMVI melanoma
[41] = tested on: 786-0 renal
[42] = tested on: UACC-62 melanoma
[43] = tested on: M14 melanoma
[44] = tested on: MDA-MB-468 breast
[45] = tested on: SF-268 CNS
[46] = tested on: SK-MEL-28 melanoma
[47] = tested on: RPMI-8226 leukemia
[48] = tested on: DU-145 prostate
[49] = tested on: HT29 colon
[50] = tested on: OVCAR-8 ovarian
[51] = tested on: CAKI-1 renal
[52] = tested on: TK-10 renal
[53] = tested on: IGROV1 ovarian
[54] = tested on: MDA-MB-231 breast
[55] = tested on: CCRF-CEM leukemia
[56] = tested on: SN12C renal
[57] = tested on: ACHN renal
[58] = tested on: HCC-2998 colon
[59] = tested on: UACC-257 melanoma

For `O=C(c1ccc(O)cc1)C1[C@H](c2ccc(Cl)cc2)[C@@H](c2ccccc2)NC12C(=O)Nc1ccccc12` (stereo partly drawn), the GI50 [1] was 5.25 µM, the TGI [1] was 11 µM and the GI50 [2] was 4.84 µM. For the same compound, the TGI [2] was 18.7 µM, the GI50 [3] was 6.29 µM and the TGI [3] was 12.3 µM. The GI50 [4] was 6.42 µM, the TGI [4] was 12.1 µM and the GI50 [5] was 6.99 µM. It also gave a TGI [5] of 14.7 µM, a GI50 [6] of 6.95 µM and a TGI [6] of 13.9 µM. For the same compound, the GI50 [7] was 8.11 µM, the TGI [7] was 16 µM and the GI50 [8] was 6.03 µM. It also gave a TGI [8] of 12.1 µM, a GI50 [9] of 8.32 µM and a TGI [9] of 14.6 µM. For the same compound, the GI50 [10] was 5.77 µM, the TGI [10] was 11.5 µM and the GI50 [11] was 5.89 µM. The TGI [11] was 11.8 µM, the GI50 [12] was 6.57 µM and the TGI [12] was 12.7 µM. For the same compound, the GI50 [13] was 4.73 µM, the TGI [13] was 9.79 µM and the GI50 [14] was 7.63 µM. The TGI [14] was 15.3 µM, the GI50 [15] was 6.22 µM and the TGI [15] was 12.8 µM. The GI50 [16] was 5.72 µM, the TGI [16] was 11.8 µM and the GI50 [17] was 7.17 µM. The TGI [17] was 16.3 µM, the GI50 [18] was 5.8 µM and the TGI [18] was 12.2 µM. It also gave a GI50 [19] of 5.3 µM, a TGI [19] of 10.9 µM and a GI50 [20] of 6.71 µM. For the same compound, the TGI [20] was 12.4 µM, the GI50 [21] was 6.68 µM and the TGI [21] was 12.4 µM. The GI50 [22] was 7.01 µM, the TGI [22] was 13.6 µM and the GI50 [23] was 5.14 µM. It also gave a TGI [23] of 12.9 µM, a GI50 [24] of 7.26 µM and a TGI [24] of 17.2 µM. For the same compound, the GI50 [25] was 4.32 µM, the TGI [25] was 11.7 µM and the GI50 [26] was 5.37 µM. For the same compound, the TGI [26] was 11.8 µM, the GI50 [27] was 8.89 µM and the TGI [27] was 42 µM. For the same compound, the GI50 [28] was 6.96 µM, the TGI [28] was 18.8 µM and the GI50 [29] was 5.6 µM. It also gave a TGI [29] of 12.4 µM, a GI50 [30] of 6.05 µM and a TGI [30] of 12.5 µM. For the same compound, the GI50 [31] was 6.91 µM, the TGI [31] was 12.7 µM and the GI50 [32] was 7.02 µM. For the same compound, the TGI [32] was 12.8 µM, the GI50 [33] was 7.17 µM and the TGI [33] was 15.3 µM. The GI50 [34] was 7.65 µM, the TGI [34] was 16.1 µM and the GI50 [35] was 7.96 µM. The TGI [35] was 25.6 µM, the GI50 [36] was 5.63 µM and the TGI [36] was 11 µM. It also gave a GI50 [37] of 5.14 µM, a TGI [37] of 42 µM and a GI50 [38] of 7.32 µM. The TGI [38] was 14 µM, the GI50 [39] was 6.03 µM and the TGI [39] was 12.4 µM. For the same compound, the GI50 [40] was 4.97 µM, the TGI [40] was 10.1 µM and the GI50 [41] was 6.25 µM. It also gave a TGI [41] of 12.2 µM, a GI50 [42] of 5 µM and a TGI [42] of 10.2 µM. The GI50 [43] was 6.19 µM, the TGI [43] was 13.6 µM and the GI50 [44] was 4.86 µM. It also gave a TGI [44] of 10.3 µM, a GI50 [45] of 7 µM and a TGI [45] of 15.8 µM. For the same compound, the GI50 [46] was 7.02 µM, the TGI [46] was 12.9 µM and the GI50 [47] was 8.61 µM. The TGI [47] was 29.9 µM, the GI50 [48] was 7.77 µM and the TGI [48] was 15.4 µM. For the same compound, the GI50 [49] was 6.11 µM, the TGI [49] was 13.3 µM and the GI50 [50] was 7.2 µM. For the same compound, the TGI [50] was 14.1 µM, the GI50 [51] was 5.19 µM and the TGI [51] was 10.8 µM. The GI50 [52] was 6.8 µM, the TGI [52] was 13.2 µM and the GI50 [53] was 5.18 µM. The TGI [53] was 10.6 µM, the GI50 [54] was 5.38 µM and the TGI [54] was 10.8 µM. It also gave a GI50 [55] of 5.9 µM, a TGI [55] of 19.8 µM and a GI50 [56] of 6.26 µM. It also gave a TGI [56] of 12 µM, a GI50 [57] of 6.08 µM and a TGI [57] of 11.6 µM. The GI50 [58] was 6.27 µM, the TGI [58] was 12 µM and the GI50 [59] was 6.79 µM. It also gave a TGI [59] of 12.9 µM.
